From PMC8119466, “A screen of FDA-approved drugs identifies inhibitors of protein tyrosine phosphatase 4A3 (PTP4A3 or PRL-3)” (Scientific Reports, 2021)
Structures can show the parent of a compound that is named as a salt.

Assays:
Type in all cases: biochemical
Settings in all cases: FDA-approved drug screen
recombinant PRL-2 = biological target: T1, recombinant PRL-2 (Homo sapiens, UniProt Q12974); assay: In vitro phosphatase assay (DiFMUP hydrolysis), PRL-2;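 also: PRL-2 activity read as DiFMUP hydrolysis after 20 min at room temperature with drug, enzyme first pre-reduced at 4 °C for 20 min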
T1 construct: 6xHis (N, cleaved yes); made in house; host or cells: E. coli One Shot BL21 Star
T1 sequence (Q12974 1-167): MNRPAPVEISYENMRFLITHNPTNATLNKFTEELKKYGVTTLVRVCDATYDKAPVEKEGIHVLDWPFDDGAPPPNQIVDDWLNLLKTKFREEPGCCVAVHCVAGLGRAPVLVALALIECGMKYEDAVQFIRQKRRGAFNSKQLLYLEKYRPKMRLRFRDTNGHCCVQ

recombinant PRL-1 = biological target: T2, recombinant PRL-1 (Homo sapiens, UniProt Q93096); assay: In vitro phosphatase assay (DiFMUP hydrolysis), PRL-1; also: test concentration or dose not given here
T2 construct: 6xHis (N, cleaved yes); made in house; host or cells: E. coli One Shot BL21 Star
T2 sequence (Q93096 1-173): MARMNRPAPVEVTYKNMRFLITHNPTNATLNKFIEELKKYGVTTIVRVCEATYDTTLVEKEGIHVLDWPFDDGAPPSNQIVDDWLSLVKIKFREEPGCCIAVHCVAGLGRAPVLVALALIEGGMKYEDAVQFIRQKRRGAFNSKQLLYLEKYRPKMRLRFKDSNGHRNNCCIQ

recombinant PRL-3 = biological target: T3, recombinant PRL-3 (Homo sapiens, UniProt O75365); assay: In vitro phosphatase assay (DiFMUP hydrolysis), PRL-3; also: test concentration or dose not given here
T3 construct: 6xHis (N, cleaved yes); made in house; host or cells: E. coli One Shot BL21 Star
T3 sequence (O75365 whole entry): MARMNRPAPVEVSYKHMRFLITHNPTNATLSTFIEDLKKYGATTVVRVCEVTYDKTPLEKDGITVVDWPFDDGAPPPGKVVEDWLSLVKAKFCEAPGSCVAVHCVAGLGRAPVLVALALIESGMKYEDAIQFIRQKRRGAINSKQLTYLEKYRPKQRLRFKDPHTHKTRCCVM

Molecule | % Phosphatase Activity (compared to DMSO) PRL-2 (recombinant PRL-2; compared to DMSO) [%] | % Phosphatase Activity (compared to DMSO) PRL-1 (recombinant PRL-1; compared to DMSO) [%] | % Phosphatase Activity (compared to DMSO) PRL-3 (recombinant PRL-3; compared to DMSO) [%] | % Phosphatase Activity (compared to DMSO) PRL-2 (recombinant PRL-2; activity compared to DMSO) [%] | % Phosphatase Activity (compared to DMSO) PRL-1 (recombinant PRL-1; activity compared to DMSO) [%] | % Phosphatase Activity (compared to DMSO) PRL-3 (recombinant PRL-3; activity compared to DMSO) [%]
CC(C)Oc1ccc(-c2nc(-c3cccc4c3CC[C@@H]4NCCO)no2)cc1C#N [Ozanimod (RPC1063)] | 101 | 95 | 88 |  |  | 
CCOC(=O)c1cncn1[C@H](C)c1ccccc1 [Etomidate] | 91 | 98 | 79 |  |  | 
CC1(C)[C@@H](OC(=O)CCC(=O)O)CC[C@]2(C)[C@H]3C(=O)C=C4[C@@H]5C[C@@](C)(C(=O)O)CC[C@]5(C)CC[C@@]4(C)[C@]3(C)CC[C@@H]12 [Carbenoxolone Sodium] | 73 | 85 | 84 |  |  | 
CSc1nc2cc(Cl)c(Oc3cccc(Cl)c3Cl)cc2[nH]1 [Triclabendazole] |  |  |  | 91 | 106 | 70
CCC1=C[C@@H]2CN(C1)Cc1c([nH]c3ccccc13)[C@@](C(=O)OC)(c1cc3c(cc1OC)N(C)[C@H]1[C@@](O)(C(=O)OC)[C@H](OC(C)=O)[C@]4(CC)C=CCN5CC[C@]31[C@@H]54)C2 [Vinorelbine Tartrate] |  |  |  | 98 | 89 | 83
COC(=O)N[C@H](C(=O)N[C@@H](Cc1ccccc1)[C@@H](O)CN(Cc1ccc(-c2ccccn2)cc1)NC(=O)[C@@H](NC(=O)OC)C(C)(C)C)C(C)(C)C.O=S(=O)(O)O [Atazanavir Sulfate] | 83 | 95 | 83 |  |  | 
CN1CCN(c2nc(C3=C(c4c[nH]c5ccccc45)C(=O)NC3=O)c3ccccc3n2)CC1 [Sotrastaurin] |  |  |  | 89 | 83 | 85
Vitamin E |  |  |  | 90 | 108 | 90
CNC(=O)c1cc(Oc2ccc(NC(=O)Nc3ccc(Cl)c(C(F)(F)F)c3)cc2)ccn1 [Sorafenib] |  |  |  | 80 | 91 | 95
Cc1ccc(NC(=O)c2ccc(CN3CCN(C)CC3)cc2)cc1Nc1nc(-c2cccnc2)cs1 [Masitinib (AB1010)] | 117 | 115 | 92 |  |  | 
Oc1ccc(OCc2ccccc2)cc1 [Monobenzone] | 112 | 105 | 72 |  |  | 
COc1cc([C@@H]2c3cc4c(cc3[C@@H](O[C@@H]3O[C@@H]5CO[C@@H](c6cccs6)O[C@H]5[C@H](O)[C@H]3O)[C@H]3COC(=O)[C@H]23)OCO4)cc(OC)c1O [Teniposide] |  |  |  | 98 | 95 | 97
O=c1[nH]c(=O)n(C2CCCO2)cc1F (stereo not drawn) [FT-207 (NSC 148958)] | 95 | 115 | 73 |  |  | 
Cn1c(=O)c2[nH]cnc2n(C)c1=O [Theophylline] |  |  |  | 98 | 105 | 84
Bacitracin | 94 | 96 | 82 |  |  | 
O=C(O)c1cc(-c2ccccc2)nc2ccccc12 [Cinchophen] | 101 | 86 | 79 |  |  | 
CCN1CCC[C@H]1CNC(=O)c1cc(S(N)(=O)=O)ccc1OC [Levosulpiride] | 103 | 98 | 84 |  |  | 
C/C(O)=C(\C#N)C(=O)Nc1ccc(C(F)(F)F)cc1 [Teriflunomide] |  |  |  | 98 | 95 | 84
CC(C)(Oc1ccc(C2CC2(Cl)Cl)cc1)C(=O)O (stereo not drawn) [Ciprofibrate] | 91 | 95 | 88 |  |  | 
CN(C)CCN1C(=O)c2cccc3cc(N)cc(c23)C1=O [Amonafide] | 98 | 89 | 72 |  |  | 
CC(C)(C)NCC(O)COc1cccc2c1CCC(=O)N2 (stereo not drawn) [Carteolol HCl] | 87 | 100 | 71 |  |  | 
Carbazochrome sodium sulfonate (AC-17) | 68 | 74 | 59 |  |  | 
C=CC(=O)N1CCC(Oc2cc3c(Nc4ccc(Cl)c(Cl)c4F)ncnc3cc2OC)CC1 [Poziotinib (HM781-36B)] | 80 | 96 | 106 |  |  | 
CC1(COc2ccc3c(c2)ncn3-c2ccc3cccc(N4CCC(N)CC4)c3n2)COC1 [Crenolanib (CP-868596)] | 115 | 117 | 105 |  |  | 
Cc1nnc(SCC2=C(C(=O)O)N3C(=O)[C@@H](NC(=O)Cn4cnnn4)[C@H]3SC2)s1 [Cefazolin Sodium] | 110 | 97 | 88 |  |  | 
CN(C)CCOC(c1ccccc1)c1ccccc1 [Diphenhydramine HCl] | 108 | 113 | 111 |  |  | 
